Data: publication PMC12670405, “Second-Generation AURKA-Targeting PROTACs: Structural Optimization toward in Vivo Degradation in Neuroblastoma” (Journal of Medicinal Chemistry, 2025)

Experiments:
Assay in all cases: KINOMEscan scanMAX
Type in all cases: binding
PIKFYVE = biological target: T1, PIKFYVE (Homo sapiens, UniProt Q9Y2I7); details: read-out: Percent Control
T1 construct: purchased Eurofins Discovery (DiscoverX KINOMEscan scanMAX)
Experimental: (§1) The kinome-wide binding assay was performed by Eurofins Discovery using the scanMAX screening platform. More information can be found on the Eurofins Discovery Web site.

WNK4 = biological target: T2, WNK4 (Homo sapiens, UniProt Q96J92); details: read-out: Percent Control
T2 construct: purchased Eurofins Discovery (DiscoverX KINOMEscan scanMAX)
Experimental: as §1

CAMK1D = biological target: T3, CAMK1D (Homo sapiens, UniProt Q8IU85); details: read-out: Percent Control
T3 construct: purchased Eurofins Discovery (DiscoverX KINOMEscan scanMAX)
Experimental: as §1

PIK3CA(M1043I) = biological target: T4, PIK3CA(M1043I) (Homo sapiens, UniProt P42336, M1043I); details: read-out: Percent Control
T4 construct: purchased Eurofins Discovery (DiscoverX KINOMEscan scanMAX)
Experimental: as §1

ACVR2B = biological target: T5, ACVR2B (Homo sapiens, UniProt Q13705); details: read-out: Percent Control
T5 construct: purchased Eurofins Discovery (DiscoverX KINOMEscan scanMAX)
Experimental: as §1

EPHA1 = biological target: T6, EPHA1 (Homo sapiens, UniProt P21709); details: read-out: Percent Control
T6 construct: purchased Eurofins Discovery (DiscoverX KINOMEscan scanMAX)
Experimental: as §1

PRKG1 = biological target: T7, PRKG1 (Homo sapiens, UniProt Q13976); details: read-out: Percent Control
T7 construct: purchased Eurofins Discovery (DiscoverX KINOMEscan scanMAX)
Experimental: as §1

SGK = biological target: T8, SGK (Homo sapiens, UniProt O00141); details: read-out: Percent Control
T8 construct: purchased Eurofins Discovery (DiscoverX KINOMEscan scanMAX)
Experimental: as §1

MAP4K4 = biological target: T9, MAP4K4 (Homo sapiens, UniProt O95819); details: read-out: Percent Control
T9 construct: purchased Eurofins Discovery (DiscoverX KINOMEscan scanMAX)
Experimental: as §1

CSNK1G1 = biological target: T10, CSNK1G1 (Homo sapiens, UniProt Q9HCP0); details: read-out: Percent Control
T10 construct: purchased Eurofins Discovery (DiscoverX KINOMEscan scanMAX)
Experimental: as §1

FLT3(D835H) = biological target: T11, FLT3(D835H) (Homo sapiens, UniProt P36888, D835H); details: read-out: Percent Control
T11 construct: purchased Eurofins Discovery (DiscoverX KINOMEscan scanMAX)
Experimental: as §1

ABL1 = biological target: T12, ABL1 (Homo sapiens, UniProt P00519); details: 1000 nM; read-out: Percent Control
T12 construct: purchased Eurofins Discovery
Experimental: as §1

MST1 = biological target: T13, MST1 (Homo sapiens, UniProt Q13043); details: read-out: Percent Control
T13 construct: purchased Eurofins Discovery (DiscoverX KINOMEscan scanMAX)
Experimental: as §1

EGFR(E746-A750del) = biological target: T14, EGFR(E746-A750del) (Homo sapiens, UniProt P00533, DEL746-750); details: read-out: Percent Control
T14 construct: purchased Eurofins Discovery (DiscoverX KINOMEscan scanMAX)
Experimental: as §1

HUNK = biological target: T15, HUNK (Homo sapiens, UniProt P57058); details: read-out: Percent Control
T15 construct: purchased Eurofins Discovery (DiscoverX KINOMEscan scanMAX)
Experimental: as §1

IKK-epsilon = biological target: T16, IKK-epsilon (Homo sapiens, UniProt Q14164); details: read-out: Percent Control
T16 construct: purchased Eurofins Discovery (DiscoverX KINOMEscan scanMAX)
Experimental: as §1

[1] = biological target: T17, TYK2(JH1domain-catalytic) (Homo sapiens, UniProt P29597); details: read-out: Percent Control
T17 construct: TYK2(JH1domain-catalytic); purchased Eurofins Discovery (DiscoverX KINOMEscan scanMAX)
Experimental: as §1

DAPK2 = biological target: T18, DAPK2 (Homo sapiens, UniProt Q9UIK4); details: read-out: Percent Control
T18 construct: purchased Eurofins Discovery (DiscoverX KINOMEscan scanMAX)
Experimental: as §1

FLT4 = biological target: T19, FLT4 (Homo sapiens, UniProt P35916); details: read-out: Percent Control
T19 construct: purchased Eurofins Discovery (DiscoverX KINOMEscan scanMAX)
Experimental: as §1

NEK10 = biological target: T20, NEK10 (Homo sapiens, UniProt Q6ZWH5); details: read-out: Percent Control
T20 construct: purchased Eurofins Discovery (DiscoverX KINOMEscan scanMAX)
Experimental: as §1

EPHA4 = biological target: T21, EPHA4 (Homo sapiens, UniProt P54764); details: read-out: Percent Control
T21 construct: purchased Eurofins Discovery (DiscoverX KINOMEscan scanMAX)
Experimental: as §1

MAST1 = biological target: T22, MAST1 (Homo sapiens, UniProt Q9Y2H9); details: read-out: Percent Control
T22 construct: purchased Eurofins Discovery (DiscoverX KINOMEscan scanMAX)
Experimental: as §1

CSNK2A2 = biological target: T23, CSNK2A2 (Homo sapiens, UniProt P19784); details: read-out: Percent Control
T23 construct: purchased Eurofins Discovery (DiscoverX KINOMEscan scanMAX)
Experimental: as §1

DYRK1B = biological target: T24, DYRK1B (Homo sapiens, UniProt Q9Y463); details: read-out: Percent Control
T24 construct: purchased Eurofins Discovery (DiscoverX KINOMEscan scanMAX)
Experimental: as §1

EPHA5 = biological target: T25, EPHA5 (Homo sapiens, UniProt P54756); details: read-out: Percent Control
T25 construct: purchased Eurofins Discovery (DiscoverX KINOMEscan scanMAX)
Experimental: as §1

PDPK1 = biological target: T26, PDPK1 (Homo sapiens, UniProt O15530); details: read-out: Percent Control
T26 construct: purchased Eurofins Discovery (DiscoverX KINOMEscan scanMAX)
Experimental: as §1

MRCKA = biological target: T27, MRCKA (Homo sapiens, UniProt Q5VT25); details: read-out: Percent Control
T27 construct: purchased Eurofins Discovery (DiscoverX KINOMEscan scanMAX)
Experimental: as §1

ERBB4 = biological target: T28, ERBB4 (Homo sapiens, UniProt Q15303); details: read-out: Percent Control
T28 construct: purchased Eurofins Discovery (DiscoverX KINOMEscan scanMAX)
Experimental: as §1

MAP4K2 = biological target: T29, MAP4K2 (Homo sapiens, UniProt Q12851); details: read-out: Percent Control
T29 construct: purchased Eurofins Discovery (DiscoverX KINOMEscan scanMAX)
Experimental: as §1

EPHA8 = biological target: T30, EPHA8 (Homo sapiens, UniProt P29322); details: read-out: Percent Control
T30 construct: purchased Eurofins Discovery (DiscoverX KINOMEscan scanMAX)
Experimental: as §1

EGFR(L858R,T790M) = biological target: T31, EGFR(L858R,T790M) (Homo sapiens, UniProt P00533, L858R/T790M); details: read-out: Percent Control
T31 construct: purchased Eurofins Discovery (DiscoverX KINOMEscan scanMAX)
Experimental: as §1

[2] = biological target: T32, RSK2(Kin.Dom.2-C-terminal) (Homo sapiens, UniProt P51812); details: read-out: Percent Control
T32 construct: RSK2(Kin.Dom.2-C-terminal); purchased Eurofins Discovery (DiscoverX KINOMEscan scanMAX)
Experimental: as §1

ABL1-nonphosphorylated = biological target: T33, ABL1-nonphosphorylated (Homo sapiens, UniProt P00519); details: read-out: Percent Control
T33 construct: purchased Eurofins Discovery (DiscoverX KINOMEscan scanMAX)
Experimental: as §1

T2 sequence (Q96J92 whole entry): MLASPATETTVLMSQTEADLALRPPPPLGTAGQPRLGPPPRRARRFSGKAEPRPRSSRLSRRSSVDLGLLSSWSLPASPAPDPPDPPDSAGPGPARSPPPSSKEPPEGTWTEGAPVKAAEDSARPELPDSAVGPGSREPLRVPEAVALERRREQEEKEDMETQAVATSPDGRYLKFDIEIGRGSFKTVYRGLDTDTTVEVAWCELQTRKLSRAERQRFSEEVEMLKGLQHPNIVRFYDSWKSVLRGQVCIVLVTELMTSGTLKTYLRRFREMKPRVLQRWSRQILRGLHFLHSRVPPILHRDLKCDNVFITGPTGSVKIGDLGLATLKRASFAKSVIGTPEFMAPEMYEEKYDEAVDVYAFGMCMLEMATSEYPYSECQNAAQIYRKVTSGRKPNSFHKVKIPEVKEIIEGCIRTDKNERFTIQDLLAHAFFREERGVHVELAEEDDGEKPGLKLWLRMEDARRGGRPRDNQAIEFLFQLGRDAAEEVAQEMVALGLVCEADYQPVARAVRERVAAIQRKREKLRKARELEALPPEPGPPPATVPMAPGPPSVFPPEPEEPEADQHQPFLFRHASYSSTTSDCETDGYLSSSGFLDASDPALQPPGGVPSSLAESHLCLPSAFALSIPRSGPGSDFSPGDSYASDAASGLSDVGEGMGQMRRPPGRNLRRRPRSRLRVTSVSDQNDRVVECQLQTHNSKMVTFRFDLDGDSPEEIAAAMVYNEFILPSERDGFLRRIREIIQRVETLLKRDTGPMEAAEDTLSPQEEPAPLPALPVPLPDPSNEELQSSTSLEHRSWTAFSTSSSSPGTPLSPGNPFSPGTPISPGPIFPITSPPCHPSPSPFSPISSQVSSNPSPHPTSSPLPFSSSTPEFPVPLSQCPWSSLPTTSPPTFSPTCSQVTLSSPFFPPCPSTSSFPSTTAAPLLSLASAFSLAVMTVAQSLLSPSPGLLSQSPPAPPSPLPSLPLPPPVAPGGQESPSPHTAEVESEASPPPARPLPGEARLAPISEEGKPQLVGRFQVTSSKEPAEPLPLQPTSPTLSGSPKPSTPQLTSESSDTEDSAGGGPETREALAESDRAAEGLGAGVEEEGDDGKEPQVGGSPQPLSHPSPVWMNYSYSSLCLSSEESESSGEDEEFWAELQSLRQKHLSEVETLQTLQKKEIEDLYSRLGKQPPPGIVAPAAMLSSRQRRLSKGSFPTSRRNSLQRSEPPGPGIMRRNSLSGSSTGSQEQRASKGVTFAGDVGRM
T33 sequence (P00519 whole entry): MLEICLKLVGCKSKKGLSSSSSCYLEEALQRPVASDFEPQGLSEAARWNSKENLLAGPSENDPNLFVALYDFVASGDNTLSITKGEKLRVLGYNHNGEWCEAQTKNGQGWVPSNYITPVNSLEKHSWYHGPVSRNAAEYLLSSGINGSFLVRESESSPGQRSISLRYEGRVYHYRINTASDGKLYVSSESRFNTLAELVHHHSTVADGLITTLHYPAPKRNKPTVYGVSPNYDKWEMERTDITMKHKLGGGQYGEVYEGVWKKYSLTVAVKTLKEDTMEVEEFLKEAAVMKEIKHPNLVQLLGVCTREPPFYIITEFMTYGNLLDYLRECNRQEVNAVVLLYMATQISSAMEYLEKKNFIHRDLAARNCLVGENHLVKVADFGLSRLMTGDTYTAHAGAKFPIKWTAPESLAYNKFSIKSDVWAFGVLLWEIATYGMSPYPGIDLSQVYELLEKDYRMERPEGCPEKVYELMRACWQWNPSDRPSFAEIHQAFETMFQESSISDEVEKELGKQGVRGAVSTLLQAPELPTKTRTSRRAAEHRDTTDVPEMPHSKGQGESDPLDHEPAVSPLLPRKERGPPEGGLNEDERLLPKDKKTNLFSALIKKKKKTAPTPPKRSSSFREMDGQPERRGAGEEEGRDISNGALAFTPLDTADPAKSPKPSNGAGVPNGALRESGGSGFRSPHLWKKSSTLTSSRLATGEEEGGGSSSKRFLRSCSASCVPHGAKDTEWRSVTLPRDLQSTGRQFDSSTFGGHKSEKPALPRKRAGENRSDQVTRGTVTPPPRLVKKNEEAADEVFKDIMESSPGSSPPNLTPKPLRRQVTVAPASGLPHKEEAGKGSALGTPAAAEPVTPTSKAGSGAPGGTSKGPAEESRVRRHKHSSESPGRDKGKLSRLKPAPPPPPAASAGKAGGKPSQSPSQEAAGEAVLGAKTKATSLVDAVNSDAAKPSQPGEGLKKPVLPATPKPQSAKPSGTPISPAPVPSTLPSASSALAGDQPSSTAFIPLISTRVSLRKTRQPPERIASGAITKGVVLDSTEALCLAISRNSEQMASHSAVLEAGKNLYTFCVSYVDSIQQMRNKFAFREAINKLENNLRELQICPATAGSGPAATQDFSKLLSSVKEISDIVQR
T8 sequence (O00141 whole entry): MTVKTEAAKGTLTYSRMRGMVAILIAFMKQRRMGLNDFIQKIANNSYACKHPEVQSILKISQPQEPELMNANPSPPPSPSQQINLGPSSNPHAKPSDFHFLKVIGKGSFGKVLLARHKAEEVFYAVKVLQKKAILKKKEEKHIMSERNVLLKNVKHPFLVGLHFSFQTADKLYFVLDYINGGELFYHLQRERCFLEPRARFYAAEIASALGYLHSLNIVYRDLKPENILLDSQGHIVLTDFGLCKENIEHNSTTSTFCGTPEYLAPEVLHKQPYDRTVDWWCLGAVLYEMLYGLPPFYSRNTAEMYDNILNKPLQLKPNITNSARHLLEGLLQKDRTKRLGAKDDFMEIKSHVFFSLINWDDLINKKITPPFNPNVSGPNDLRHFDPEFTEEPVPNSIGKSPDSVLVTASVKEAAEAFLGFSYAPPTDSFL
T19 sequence (P35916 25-1363): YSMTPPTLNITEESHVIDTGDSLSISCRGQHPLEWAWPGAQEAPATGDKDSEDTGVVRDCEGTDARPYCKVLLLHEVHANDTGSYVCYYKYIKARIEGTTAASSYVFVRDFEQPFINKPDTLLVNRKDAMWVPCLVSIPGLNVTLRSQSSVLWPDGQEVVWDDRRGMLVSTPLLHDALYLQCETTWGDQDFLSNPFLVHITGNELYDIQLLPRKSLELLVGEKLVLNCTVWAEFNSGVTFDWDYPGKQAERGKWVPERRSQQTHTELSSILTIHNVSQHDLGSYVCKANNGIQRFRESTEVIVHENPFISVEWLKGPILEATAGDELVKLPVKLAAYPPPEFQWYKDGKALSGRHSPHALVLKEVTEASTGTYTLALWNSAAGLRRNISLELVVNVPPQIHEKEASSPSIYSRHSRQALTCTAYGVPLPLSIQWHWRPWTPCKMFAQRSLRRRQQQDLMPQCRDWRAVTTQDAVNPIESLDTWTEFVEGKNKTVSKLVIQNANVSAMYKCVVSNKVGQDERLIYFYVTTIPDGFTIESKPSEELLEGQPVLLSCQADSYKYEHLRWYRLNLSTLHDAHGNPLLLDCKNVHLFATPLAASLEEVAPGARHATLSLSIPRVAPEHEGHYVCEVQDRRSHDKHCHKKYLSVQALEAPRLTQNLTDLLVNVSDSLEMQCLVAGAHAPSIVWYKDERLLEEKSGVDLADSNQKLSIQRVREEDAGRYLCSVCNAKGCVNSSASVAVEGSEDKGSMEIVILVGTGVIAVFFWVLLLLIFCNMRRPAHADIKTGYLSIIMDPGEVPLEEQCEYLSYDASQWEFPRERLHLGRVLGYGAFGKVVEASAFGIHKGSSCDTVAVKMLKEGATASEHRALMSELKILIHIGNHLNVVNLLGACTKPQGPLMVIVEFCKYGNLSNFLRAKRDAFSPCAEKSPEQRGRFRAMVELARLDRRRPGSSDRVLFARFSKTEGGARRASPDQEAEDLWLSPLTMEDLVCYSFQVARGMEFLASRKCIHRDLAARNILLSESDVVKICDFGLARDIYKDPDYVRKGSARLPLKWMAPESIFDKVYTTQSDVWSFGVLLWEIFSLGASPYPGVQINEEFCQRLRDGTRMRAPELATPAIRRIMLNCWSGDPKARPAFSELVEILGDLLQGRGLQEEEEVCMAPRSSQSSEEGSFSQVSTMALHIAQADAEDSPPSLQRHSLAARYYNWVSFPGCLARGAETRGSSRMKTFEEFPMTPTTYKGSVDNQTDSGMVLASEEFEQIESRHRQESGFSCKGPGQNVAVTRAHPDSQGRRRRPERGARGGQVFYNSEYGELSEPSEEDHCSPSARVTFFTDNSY
T32 sequence (P51812 398-740 limits assumed): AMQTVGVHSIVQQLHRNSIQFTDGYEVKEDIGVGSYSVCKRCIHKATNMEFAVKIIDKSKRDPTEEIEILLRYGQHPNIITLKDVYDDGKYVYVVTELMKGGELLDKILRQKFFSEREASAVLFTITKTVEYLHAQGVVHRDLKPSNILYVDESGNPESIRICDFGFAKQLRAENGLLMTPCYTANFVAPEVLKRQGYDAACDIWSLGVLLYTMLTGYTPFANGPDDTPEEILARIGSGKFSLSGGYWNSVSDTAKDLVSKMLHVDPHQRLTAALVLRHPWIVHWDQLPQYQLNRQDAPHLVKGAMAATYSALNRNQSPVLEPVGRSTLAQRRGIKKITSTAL
T13 sequence (Q13043 whole entry): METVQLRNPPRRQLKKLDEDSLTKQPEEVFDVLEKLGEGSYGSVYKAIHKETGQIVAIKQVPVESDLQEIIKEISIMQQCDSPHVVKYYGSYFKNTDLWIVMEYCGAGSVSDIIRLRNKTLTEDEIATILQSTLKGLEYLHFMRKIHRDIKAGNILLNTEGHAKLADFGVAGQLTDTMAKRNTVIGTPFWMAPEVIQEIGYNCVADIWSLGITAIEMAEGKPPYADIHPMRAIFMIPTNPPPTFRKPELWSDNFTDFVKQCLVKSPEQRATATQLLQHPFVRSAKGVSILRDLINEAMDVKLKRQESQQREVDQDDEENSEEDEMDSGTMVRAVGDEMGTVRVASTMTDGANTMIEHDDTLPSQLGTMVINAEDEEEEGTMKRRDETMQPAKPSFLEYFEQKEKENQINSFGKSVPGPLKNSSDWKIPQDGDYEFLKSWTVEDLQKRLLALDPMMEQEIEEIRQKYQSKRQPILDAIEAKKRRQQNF
T12 sequence (P00519 whole entry): as the sequence (P00519 whole entry) above

Cc1cc(Nc2ccc(F)c(CC3(C(=O)N4CCC(F)(CN5CCN(c6ccc(N7CCC(=O)NC7=O)cn6)CC5)CC4)CCN(Cc4cccc(Cl)c4F)CC3)n2)n[nH]1 [SK5527]
remaining binding at 0.1 µM (PIKFYVE; 100 nM): 100%
remaining binding at 1 µM (PIKFYVE; 1000 nM): 100%
remaining binding at 0.1 µM (WNK4; 100 nM): 80%
remaining binding at 1 µM (WNK4; 1000 nM): 95%
remaining binding at 0.1 µM (CAMK1D; 100 nM): 100%
remaining binding at 1 µM (CAMK1D; 1000 nM): 100%
remaining binding at 0.1 µM (PIK3CA(M1043I); 100 nM): 100%
remaining binding at 1 µM (PIK3CA(M1043I); 1000 nM): 100%
remaining binding at 0.1 µM (ACVR2B; 100 nM): 100%
remaining binding at 1 µM (ACVR2B; 1000 nM): 87%
remaining binding at 0.1 µM (EPHA1; 100 nM): 67%
remaining binding at 1 µM (EPHA1; 1000 nM): 23%
remaining binding at 0.1 µM (PRKG1; 100 nM): 92%
remaining binding at 1 µM (PRKG1; 1000 nM): 100%
remaining binding at 0.1 µM (SGK; 100 nM): 93%
remaining binding at 1 µM (SGK; 1000 nM): 68%
remaining binding at 0.1 µM (MAP4K4; 100 nM): 86%
remaining binding at 1 µM (MAP4K4; 1000 nM): 73%
remaining binding at 0.1 µM (CSNK1G1; 100 nM): 100%
remaining binding at 1 µM (CSNK1G1; 1000 nM): 98%
remaining binding at 0.1 µM (FLT3(D835H); 100 nM): 89%
remaining binding at 1 µM (FLT3(D835H); 1000 nM): 54%
remaining binding at 1 µM (ABL1): 8.4%
remaining binding at 0.1 µM (MST1; 100 nM): 100%
remaining binding at 1 µM (MST1; 1000 nM): 100%
remaining binding at 0.1 µM (EGFR(E746-A750del); 100 nM): 78%
remaining binding at 1 µM (EGFR(E746-A750del); 1000 nM): 70%
remaining binding at 0.1 µM (HUNK; 100 nM): 93%
remaining binding at 1 µM (HUNK; 1000 nM): 100%
remaining binding at 0.1 µM (IKK-epsilon; 100 nM): 75%
remaining binding at 1 µM (IKK-epsilon; 1000 nM): 67%
remaining binding at 0.1 µM ([1]; 100 nM): 79%
remaining binding at 1 µM ([1]; 1000 nM): 81%
remaining binding at 0.1 µM (DAPK2; 100 nM): 100%
remaining binding at 1 µM (DAPK2; 1000 nM): 93%
remaining binding at 0.1 µM (FLT4; 100 nM): 76%
remaining binding at 1 µM (FLT4; 1000 nM): 40%
remaining binding at 0.1 µM (NEK10; 100 nM): 100%
remaining binding at 1 µM (NEK10; 1000 nM): 100%
remaining binding at 0.1 µM (EPHA4; 100 nM): 91%
remaining binding at 1 µM (EPHA4; 1000 nM): 100%
remaining binding at 0.1 µM (MAST1; 100 nM): 72%
remaining binding at 1 µM (MAST1; 1000 nM): 100%
remaining binding at 0.1 µM (CSNK2A2; 100 nM): 100%
remaining binding at 1 µM (CSNK2A2; 1000 nM): 100%
remaining binding at 0.1 µM (DYRK1B; 100 nM): 98%
remaining binding at 1 µM (DYRK1B; 1000 nM): 74%
remaining binding at 0.1 µM (EPHA5; 100 nM): 100%
remaining binding at 1 µM (EPHA5; 1000 nM): 93%
remaining binding at 0.1 µM (PDPK1; 100 nM): 89%
remaining binding at 1 µM (PDPK1; 1000 nM): 100%
remaining binding at 0.1 µM (MRCKA; 100 nM): 100%
remaining binding at 1 µM (MRCKA; 1000 nM): 93%
remaining binding at 0.1 µM (ERBB4; 100 nM): 100%
remaining binding at 1 µM (ERBB4; 1000 nM): 100%
remaining binding at 0.1 µM (MAP4K2; 100 nM): 88%
remaining binding at 1 µM (MAP4K2; 1000 nM): 95%
remaining binding at 0.1 µM (EPHA8; 100 nM): 91%
remaining binding at 1 µM (EPHA8; 1000 nM): 81%
remaining binding at 0.1 µM (EGFR(L858R,T790M); 100 nM): 82%
remaining binding at 1 µM (EGFR(L858R,T790M); 1000 nM): 87%
remaining binding at 0.1 µM ([2]; 100 nM): 82%
remaining binding at 1 µM ([2]; 1000 nM): 89%
remaining binding at 0.1 µM (ABL1-nonphosphorylated; 100 nM): 55%
remaining binding at 1 µM (ABL1-nonphosphorylated; 1000 nM): 8.4%
